Results reported in PMC4154066 (Chemical research in toxicology, 2013).

Assays:
HepG2 cells [1] = assay: cells; assay type: cell-based, Human; conditions: for Compound potency (IC50) LDH Release 5 h: HepG2, 5 h treatment; for Compound potency (IC50) LDH Release 5 h / Compound potency (IC50) LDH Release 1 h: mean ± SD, 3 independent experiments; for Compound potency (IC50) LDH Release 1 h: HepG2, 1 h treatment
HepG2 cells [2] = assay: Oxygen consumption rate; assay type: cell-based, Human; conditions: for Relative percentage OCR 30 Sec: HepG2, 30 sec after compound at its MMP IC50; for Relative percentage OCR 30 Sec / Relative percentage OCR 1 h: basal OCR = 100%, mean ± SD; for Relative percentage OCR 1 h: HepG2, 1 h after compound at its MMP IC50; for Effect on OCR / FCCP-uncoupled OCR (in words): HepG2, compound at its MMP IC50, 30 sec and 1 h, then FCCP
caspase 3/7 = conditions: HepG2, 16 h; cited from earlier work
caspase 9 = conditions: HepG2, 5 h; cited from earlier work
[3] = test system: mitochondrial membrane potential in HepG2 cells; assay: qHTS MMP assay, primary screen; assay type: cell-based, Human
[4] = test system: mitochondrial membrane potential in HepG2 cells; assay: MMP assay, powder compound confirmation, fluorescence plate reader; assay type: cell-based, Human

SMILES | Compound potency (IC50) LDH Release 5 h (HepG2 cells [1]) | Relative percentage OCR 30 Sec (HepG2 cells [2]) | Relative percentage OCR 1 h (HepG2 cells [2]) | induction of caspase 3/7 (caspase 3/7) | Compound potency (IC50) LDH Release 1 h (HepG2 cells [1]) | IC50 (HepG2 cells [1]; Homo sapiens, HepG2, 5 h, read-out: Compound potency (IC50) LDH Release 5 h) | Effect on OCR / FCCP-uncoupled OCR (in words) (HepG2 cells [2]) | activation of caspase 9 (caspase 9) | Primary screen outcome (MMP decrease) 1 h [3] | Primary screen outcome (MMP decrease) 5 h [3] | Compound potency (IC50) Fluorescence readout 5 h ([4]; HepG2, powder compound confirmation, 5 h, mean ± SD, 4 independent experiments) | Emax ([4]; Homo sapiens, HepG2, 5 h, read-out: efficacy (maximal response))
Cl.N=C1C=CC(=C(c2ccc(N)cc2)c2ccc(N)cc2)C=C1 [Basic red 9 (p-Rosaniline HCl), p-Rosaniline HCl] | negative | −9.78 ± 16.86% | 35.74 ± 2.42% | negative |  |  |  |  |  |  |  | 
CN(C)c1ccc(C(=C2C=CC(=[N+](C)C)C=C2)c2ccc(N(C)C)cc2)cc1 [Hexamethyl-p-rosaniline chloride] | cytotoxic | 132.56 ± 3.88% | 105.01 ± 1.65% | induced caspase 3/7 | Inconclusive | 56.1 µM | immediate uncoupling | seems to activate caspase 9 |  |  |  | 
CN(C)c1ccc(C(=C2C=CC(=[N+](C)C)C=C2)c2ccccc2)cc1.CN(C)c1ccc(C(=C2C=CC(=[N+](C)C)C=C2)c2ccccc2)cc1.O=C(O)C(=O)O.O=C([O-])C(=O)O.O=C([O-])C(=O)O [Malachite green oxalate] | cytotoxic | 163.81 ± 17.5% | 97.14 ± 3.09% | induced caspase 3/7 | Inactive |  | immediate uncoupling |  | positive | positive |  | 
COc1cc(C2Oc3cc([C@H]4Oc5cc(O)cc(O)c5C(=O)[C@@H]4O)ccc3OC2CO)ccc1O (stereo partly shown) [Silibinin] |  | 92.67 ± 0.69% | 95.66 ± 0.46% |  |  |  | significantly suppressed the FCCP uncoupled rates |  |  |  | weakly active | 38.1%
